# Tests used:
# [1] = tested on: wild-type HIV-1 strains and HIV-1 strains harboring different resistance-inducing mutations; conditions: Das et al., J. Med Chem., 2004; cited from earlier work
# [2] = Solubility of dapivirine in water; type: physicochemical
smiles,measurement,setting,value
"Cc1cc(C)c(Nc2ccnc(Nc3ccc(C#N)cc3)n2)c(C)c1 [dapivirine, 4-[[4-[(2,4,6-trimethylphenyl)amino]-2-pyrimidinyl]amino]benzonitrile]",Activity against HIV-1 strains,[1],potent activity
same,Solubility in water,[2],virtually insoluble in water
same,solubility,[2],< 1 µg/mL

# Reference: patent US11259956B2, “Combination therapy intravaginal rings” (International Partnership For Microbicides, Inc., priority 2013, dated 2022)
